Measured values taken from publication PMC10794188, “Structure-based development of 3,5-dihydroxybenzoyl-hydrazineylidene as tyrosinase inhibitor; in vitro and in silico study” (Scientific Reports, 2024).
Like-named read-outs stand apart in the source and are kept apart here.

Key:
[1] = biological target: mushroom tyrosinase; conditions: cited from earlier work
[2] = test system: tyrosinase; experiment: Tyrosinase inhibitory assay (colorimetric, L-DOPA substrate); assay type: biochemical; conditions: for IC50: read-out: IC50 (µM) ± RSD
Method: The tyrosinase inhibitory activities of derivatives were performed according to the previously reported procedures[26],[27]. All the test samples were first dissolved in DMSO at dilution to the required final concentrations. Initially, in a 96-well microplate, 10 µl of test samples were added to 160 µl of phosphate buffer (pH = 6.8), and then 10 µl tyrosinase was added. After the mixture was pre-incubated at 28 °C for 20 min, 20 µl of L-DOPA solution was added. DMSO without test compounds was used as the control, and kojic acid was used as a positive control. After 8 min incubation absorbance of samples was measured at 490 nm. Each assay was conducted as three separate replicates.

[3] = test system: skin melanoma cells; parameters: method as in PMID 34140181; conditions: 8 µM; cited from earlier work
[4] = test system: tyrosinase; experiment: Enzyme kinetic study (Lineweaver–Burk, L-DOPA); assay type: biochemical
Description: The Lineweaver–Burk reciprocal plot was provided by plotting 1/V against 1/[S] at variable concentrations of the L-DOPA.

Row | SMILES | % inhibition at 100 µM [2] [%] | other results
1 | CC(=O)c1cccc(NC(=O)COC(=O)/C=C/c2ccc(O)cc2O)c1 [D] |  | IC50 [1]: 0.002 µM
2 | O=C(Cn1cc(COc2ccc(C=NNC(=O)c3cc(O)cc(O)c3)cc2)nn1)Nc1ccccc1 [Compound 11a, 2-(4-((4-((2-(3,5-dihydroxybenzoyl)hydrazineylidene)methyl)phenoxy)methyl)-1H-1,2,3-triazol-1-yl)-N-phenylacetamide] | 53.87 ± 1.53 | IC50 [2]: 90.5 µM
3 | Cc1cc([N+](=O)[O-])ccc1NC(=O)Cn1cc(COc2ccc(C=NNC(=O)c3cc(O)cc(O)c3)cc2)nn1 [Compound 11i, 2-(4-((4-((2-(3,5-dihydroxybenzoyl)hydrazineylidene)methyl)phenoxy)methyl)-1H-1,2,3-triazol-1-yl)-N-(2-methyl-4-nitrophenyl)acetamide] | 15.05 ± 2.29 | 
4 | O=C(Cn1cc(COc2ccc(C=NNC(=O)c3cc(O)cc(O)c3)cc2)nn1)Nc1ccc(Cl)cc1 [Compound 11d, N-(4-chlorophenyl)-2-(4-((4-((2-(3,5-dihydroxybenzoyl)hydrazineylidene)methyl)phenoxy)methyl)-1H-1,2,3-triazol-1-yl)Acetamide] | 22.82 ± 0.53 | 
5 | Cc1cccc(C)c1NC(=O)Cn1cc(COc2ccc(C=NNC(=O)c3cc(O)cc(O)c3)cc2)nn1 [Compound 11k, 2-(4-((4-((2-(3,5-dihydroxybenzoyl)hydrazineylidene)methyl)phenoxy)methyl)-1H-1,2,3-triazol-1-yl)-N-(2,6-dimethylphenyl)Acetamide] | 38.59 ± 0.74 | 
6 | O=c1cc(CO)occ1O [Kojic acid, reference compound] | 23.64 ± 2.56 | 
7 | Clc1ccc(Cn2cc(COc3ccc(-c4nc5ccccc5[nH]4)cc3)nn2)cc1Cl [Compound F] |  | IC50 [1]: 9.42 µM
8 | O=C(Cn1cc(COc2ccc(C=NNC(=O)c3cc(O)cc(O)c3)cc2)nn1)Nc1ccc(Cl)cc1Cl [Compound 11f, N-(2,4-dichlorophenyl)-2-(4-((4-((2-(3,5-dihydroxybenzoyl)hydrazineylidene)methyl)phenoxy)methyl)-1H-1,2,3-triazol-1-yl)acetamide] | 19.54 ± 2.48 | 
9 | O=C(/C=C/c1ccc(O)cc1)c1cc(O)cc(O)c1 [A] |  | IC50 [1]: 8.1 µM
10 | O=C1NC(=O)C(=Cc2ccc(OCc3cn(Cc4ccccc4Cl)nn3)cc2)C(=O)N1 [Compound G] |  | IC50 [1]: 29.9 µM
11 | NC(=S)N/N=C/c1ccc(OCc2cn(CC(=O)NCc3ccccc3)nn2)cc1 [Compound H] |  | melanin content [3]: 39.8%; IC50 ([1]; L-DOPA as substrate): 0.17 µM; IC50 ([1]; L-tyrosine as substrate): 0.11 µM
12 | O=C(Cn1cc(COc2ccc(C=NNC(=O)c3cc(O)cc(O)c3)cc2)nn1)NCc1ccccc1 [Compound 11n, N-benzyl-2-(4-((4-((2-(3,5-dihydroxybenzoyl)hydrazineylidene)methyl)phenoxy)methyl)-1H-1,2,3-triazol-1-yl)acetamide] | 17.48 ± 1.79 | 
13 | Cc1ccc(NC(=O)Cn2cc(COc3ccc(C=NNC(=O)c4cc(O)cc(O)c4)cc3)nn2)cc1 [Compound 11j, 2-(4-((4-((2-(3,5-dihydroxybenzoyl)hydrazono)methyl)phenoxy)methyl)-1H-1,2,3-triazol-1-yl)-N-(p-tolyl)acetamide] | 15.22 ± 4.33 | 
14 | O=C(Cn1cc(COc2ccc(C=NNC(=O)c3cc(O)cc(O)c3)cc2)nn1)Nc1c(Cl)cccc1Cl [Compound 11g, N-(2,6-dichlorophenyl)-2-(4-((4-((2-(3,5-dihydroxybenzoyl)hydrazineylidene)methyl)phenoxy)methyl)-1H-1,2,3-triazol-1-yl)Acetamide] | 27.87 ± 1.83 | 
15 | O=C(Cn1cc(COc2ccc(C=NNC(=O)c3cc(O)cc(O)c3)cc2)nn1)Nc1ccccc1F [Compound 11b, 2-(4-((4-((2-(3,5-dihydroxybenzoyl)hydrazono)methyl)phenoxy)methyl)-1H-1,2,3-triazol-1-yl)-N-(2-fluorophenyl)acetamide] | 22.99 ± 1.20 | 
16 | CCc1ccc(NC(=O)Cn2cc(COc3ccc(C=NNC(=O)c4cc(O)cc(O)c4)cc3)nn2)cc1 [Compound 11l, 2-(4-((4-((2-(3,5-dihydroxybenzoyl)hydrazineylidene)methyl)phenoxy)methyl)-1H-1,2,3-triazol-1-yl)-N-(4-ethylphenyl)acetamide] | 55.52 ± 4.63 | IC50 [2]: 87.5 µM
17 | CCOc1cc(/C=N/NC(=O)c2ccc(O)c(OC)c2)ccc1O [Compound C] |  | IC50 [1]: 1.58 µM
18 | O=C(N/N=C/c1ccc(Cl)cc1)c1ccc(O)cc1 [Compound E] |  | IC50 [1]: 7.57 ± 0.01 µM
19 | O=C(Cn1cc(COc2ccc(C=NNC(=O)c3cc(O)cc(O)c3)cc2)nn1)Nc1ccc([N+](=O)[O-])cc1 [Compound 11h, 2-(4-((4-((2-(3,5-dihydroxybenzoyl)hydrazineylidene)methyl)phenoxy)methyl)-1H-1,2,3-triazol-1-yl)-N-(4-nitrophenyl)Acetamide] | 22.74 ± 2.86 | 
20 | O=C(Cn1cc(COc2ccc(C=NNC(=O)c3cc(O)cc(O)c3)cc2)nn1)Nc1ccc(F)cc1 [Compound 11c, 2-(4-((4-((2-(3,5-dihydroxybenzoyl)hydrazono)methyl)phenoxy)methyl)-1H-1,2,3-triazol-1-yl)-N-(4-fluorophenyl)acetamide] | 32.28 ± 2.76 | 
21 | COc1ccc(NC(=O)Cn2cc(COc3ccc(C=NNC(=O)c4cc(O)cc(O)c4)cc3)nn2)cc1 [Compound 11m, 2-(4-((4-((2-(3,5-dihydroxybenzoyl)hydrazineylidene)methyl)phenoxy)methyl)-1H-1,2,3-triazol-1-yl)-N-(4-methoxyphenyl)acetamide] | 78.81 ± 7.35 | IC50 [2]: 55.4 µM; mode of inhibition ([4]; Lineweaver–Burk plot): competitive; Ki ([4]; secondary plot of Km vs inhibitor concentration, L-DOPA, read-out: dissociation constant Ki): 52.8 µM
22 | O=C(Cn1cc(COc2ccc(C=NNC(=O)c3cc(O)cc(O)c3)cc2)nn1)Nc1ccc(Br)cc1 [Compound 11e, N-(4-bromophenyl)-2-(4-((4-((2-(3,5-dihydroxybenzoyl)hydrazono)methyl)phenoxy)methyl)-1H-1,2,3-triazol-1-yl)acetamide] | 14.13 ± 2.31 | 
